Assay results published in patent publication US20240166643A1, “IMIDAZO[1,2-A]PYRIDINE COMPOUNDS AND THEIR USE IN THERAPY” (Imperial College Innovations Limited, priority 2020, published 2024).
pEC50, pIC50: −log10 of the molar value. Where two headings read alike, the source gives them in different places. Marks after values point to notes of the source that are not given here.

Tests used:
Human NMT1 (HsNMT1) = Human NMT1 (HsNMT1) (Homo sapiens, UniProt P30419)
[1] = target: T1, Plasmodium vivax (Pv) NMT (Plasmodium vivax (strain Salvador I), UniProt A5K1A2)
[2] = test system: P. falciparum Pf3D7^0087/N9; assay: Mouse malaria model, NODscidIL2Rγnull mice engrafted with human erythrocytes; conditions: for activity compared to untreated control mice: day 7 post-infection
[3] = Rat clearance and bioavailability (iv and oral dosing); format: in vivo; conditions: male, Sprague-Dawley, plasma, administered as a single compound
BL-41 cells [4] = assay: CellTiter-Blue assay, BL-41; format: cell-based; conditions: Homo sapiens, BL41 cell line, 72 hours
Method: (§1) Assay (d): CellTiter-Blue® Assay
(§2) BL-41, Ramos, Raji and A20 cells (obtained from Cell Services at the Crick Institute; cell type of BL-41, Ramos, Raji: Burkitt's Lymphoma; cell type of A20: murine B cell lymphoma cell line) were grown in RPMI-1640 media in 5% CO2 (supplemented with 10% FBS). The cells were seeded in 96-well plates, 24 h prior to treatment. Cell suspensions were prepared by adjusting the cell density to the appropriate concentration (as stated in the Table 9 below) and 50 μL of the cell suspension was transferred to wells B-G in columns 2-11 of a 96-well plate. […]
(§3) 72 hours later, 20 μl/well CellTiter-Blue® (G8081, Promega) were added to the plates according to the manufacturer's protocol, the plate was incubated at 37° C. for 2 or 3-4 h (A20, Ramos and Raji: 2 h; BL-41 and EL-4: 3-4 h), followed by measuring the absorbance per well at 570 nm using an EnVision plate reader. […] The metabolic activity was calculated as a percentage relative to the positive control. The EC50 values were calculated using GraphPad Prism.

in vitro = conditions: male, Sprague-Dawley, rat, pooled cryopreserved rat hepatocytes, pH 7.4
EL4 cells = assay: CellTiter-Blue assay, EL4; format: cell-based; conditions: EL4 cell line, 72 hours
Method: as §1
Cell suspensions were prepared by adjusting the cell density to the appropriate concentration (as stated in the Table 10 below) and 50 μL of the cell suspension was transferred to wells B-G in columns 2-11 of a 96-well plate.
For each the BL-41, Ramos, Raji, A20 cell lines and EL4, twenty-four hours later, 50 μL of the growth media for the respective cell line (positive control), a mix of Puromycin and Staurosporine (negative controls, final concentration 10 μg/mL and 1 μM respectively) or different concentrations of each Example compound being tested (dilution factor=3, starting at μM, final concentration in the plate starting from 10 μM) were prepared and added to a well of the 96-well plate. The plate was incubated at 37° C. with 5% CO2 level.
72 hours later, 20 μl/well CellTiter-Blue® (G8081, Promega) were added to the plates according to the manufacturer's protocol, the plate was incubated at 37° C. for 2 or 3-4 h (A20, Ramos and Raji: 2 h; BL-41 and EL-4: 3-4 h), followed by measuring the absorbance per well at 570 nm using an EnVision plate reader. The negative control values were subtracted from every value. The metabolic activity was calculated as a percentage relative to the positive control. The EC50 values were calculated using GraphPad Prism.

SU-DHL-10 cells = assay: Cell cytotoxicity in SU-DHL-10 cell line (CellTiter-Glo); format: cell-based; conditions: Homo sapiens, SU-DHL10; CellTiter-Glo, 48 h; read-out: SU-DHL-10 EC50
A20 cells = assay: CellTiter-Blue assay, A20; format: cell-based, murine; conditions: Mus musculus, A20 cell line, 72 hours
Method: as §1, §2, §3

BL-41 cells [5] = assay: Metabolic activity assay (MTS assay) in BL-41 cell line; format: cell-based; conditions: Homo sapiens, 72 h
Ramos cells = assay: CellTiter-Blue assay, Ramos; format: cell-based; conditions: Homo sapiens, Ramos cell line, 72 hours
Method: as §1, §2, §3

[6] = test system: Plasmodium falciparum 3D7; assay: SYBR Green assay, Plasmodium falciparum strain 3D7; format: cell-based; conditions: P. falciparum strain 3D7, 96 h incubation, read-out: Pf EC50 strain 3D7
[7] = target: T1, Plasmodium vivax (Pv) NMT; assay: biochemical
Raji cells = assay: CellTiter-Blue assay, Raji; format: cell-based; conditions: Homo sapiens, Raji cell line, 72 hours
Method: as §1, §2, §3

SKNAS-ER-N-Myc cell line = assay: CellTiter-Blue assay, SKNAS-ER-N-Myc with or without MYCN induction; format: cell-based, human
Description: as §1
(§4) Shep-ER-N-Myc cell line (cell type: human neuroblastoma) was sourced from Linda Valentijn, and firstly reported in Valentijn et. al., Cancer Res, 2005, 65(8), 3136-3145. SKNAS-ER-N-Myc cell line (cell type: human neuroblastoma) was sourced from Michael D. Hogarty, and firstly reported in Ushmorov et al., Oncogene, 2008, 27(24), 3424-3434. P-493-6 cell line was sourced from Chi Van Dang, and firstly reported in Pajic et. al., Int J Cancer, 2000, 87(6), 787-793. P-493-6 cell line is a non-transformed B cell line that can be genetically engineered to have either “low” levels of c-Myc, “medium” levels of c-Myc or “high” levels of c-Myc. The terms “low”, “medium” and “high” are descriptors commonly used in the art and will be readily understood to mean: • i) “low” levels of c-Myc—a level of MYC expression which represents non-proliferating normal cells (i.e. a level of MYC expression not sufficient to cause the cycling of the cells); • ii) “medium” levels of c-Myc—a level of MYC expression which represents normal proliferating cells; and • iii) “high” levels of c-Myc—a level of MYC expression which represents enforced/deregulated expression of c-Myc, typically observed in cancerous cells. […]
For SKNAS cells, the experiment was performed in a 48 well plate and in technical triplicate. […] The fluorescence was measured at 570 nm using an EnVision™ plate reader. […]

Shep-ER-N-Myc cell line = assay: CellTiter-Blue assay, Shep-ER-N-Myc with or without MYCN induction; format: cell-based, human; conditions: 72 hours
Description: as §1, §4
For Shep cells, the experiment was performed in a 96 well plate and in technical quadruplicate. […] The fluorescence was measured at 570 nm using an EnVision™ plate reader. […]

P-493-6 cell line = assay: CellTiter-Blue assay, P-493-6 with low, medium or high c-Myc; format: cell-based, human; conditions: 72 hours, different expression levels of c-Myc induced
Description: as §1, §4

T1 sequence (A5K1A2 1-410): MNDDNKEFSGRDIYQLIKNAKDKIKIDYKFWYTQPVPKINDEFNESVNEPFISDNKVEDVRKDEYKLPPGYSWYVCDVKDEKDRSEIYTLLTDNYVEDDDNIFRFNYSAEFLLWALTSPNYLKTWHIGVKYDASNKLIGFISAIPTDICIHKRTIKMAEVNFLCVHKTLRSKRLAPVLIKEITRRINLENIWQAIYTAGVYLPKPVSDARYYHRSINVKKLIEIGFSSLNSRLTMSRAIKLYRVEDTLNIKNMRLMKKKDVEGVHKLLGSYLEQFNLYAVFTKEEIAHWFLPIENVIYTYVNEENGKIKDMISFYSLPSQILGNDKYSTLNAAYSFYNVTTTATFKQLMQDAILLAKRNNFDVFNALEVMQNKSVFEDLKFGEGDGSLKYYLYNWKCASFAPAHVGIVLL
Human NMT1 (HsNMT1), sequence (P30419 whole entry, looked up): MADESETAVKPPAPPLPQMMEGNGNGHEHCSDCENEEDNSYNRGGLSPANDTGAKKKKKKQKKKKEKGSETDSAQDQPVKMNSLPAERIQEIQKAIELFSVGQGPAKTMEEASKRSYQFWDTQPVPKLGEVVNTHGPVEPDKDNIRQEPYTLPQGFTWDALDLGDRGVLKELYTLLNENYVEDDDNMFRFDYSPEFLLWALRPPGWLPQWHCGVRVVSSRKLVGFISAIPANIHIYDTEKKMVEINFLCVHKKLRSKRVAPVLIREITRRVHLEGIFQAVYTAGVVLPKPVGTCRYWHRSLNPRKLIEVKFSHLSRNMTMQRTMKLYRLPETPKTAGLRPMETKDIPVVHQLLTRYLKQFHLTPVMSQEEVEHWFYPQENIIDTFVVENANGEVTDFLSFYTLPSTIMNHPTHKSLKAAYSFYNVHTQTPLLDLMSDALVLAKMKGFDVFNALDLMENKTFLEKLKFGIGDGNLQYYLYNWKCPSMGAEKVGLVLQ

`Cc1cnc(CNC(=O)C2CN(c3nc(NCCN(C)C)ncc3Cl)C2)cn1` [Comparative Example 1, reference compound] showed a pIC50 (Human NMT1 (HsNMT1)) of 4.34 and a pIC50 [1] of 5.08.

`CN(C)CCNc1ncc(Cl)c(N2CC(C(=O)NCc3ccc(F)cc3F)C2)n1` [Comparative Example 2] showed a pIC50 [1] of 5.70.

In the case of `C[C@@H]1CN(c2ncc(Cl)c(N3CC(C(=O)NC(C)(C)c4cnc5ccccn45)C3)n2)CCN1C` [Example 3, 1-(5-chloro-2-[(3R)-3,4-dimethylpiperazin-1-yl]pyrimidin-4-yl}-N-(2-{imidazo[1,2-a]pyridin-3-yl}propan-2-yl)azetidine-3-carboxamide], the “activity compared to untreated control mice” value ([2]; 4×3 mg/kg p.o.) was 4%, the “activity compared to untreated control mice” value ([2]; 4×10 mg/kg p.o.) was 37% and the “mice / smears parasite free” value ([2]; 4×30 mg/kg p.o., day 7) was “all mice were parasite-free”. For the same compound, the “activity compared to untreated control mice” value ([2]; 4×30 mg/kg p.o.) was over 99.9%, the half-life ([3]; iv 2 mg/kg, read-out: Rat iv t1/2 (converted)) was 4.3 h and the bioavailability ([3]; oral 20 mg/kg) was 24%. For the same compound, the pEC50 (BL-41 cells [4]) was 6.66, the half-life at 1 µM (in vitro) was 2.05 h and the pEC50 (EL4 cells) was 5.91. The pEC50 (SU-DHL-10 cells) was 6.20, the pEC50 (A20 cells) was 5.16 and the pEC50 (BL-41 cells [5]) was 6.25. It also gave a pEC50 (Ramos cells) of 5.64, a pEC50 [6] of 7.96 and a pIC50 [7] of 8.47. For the same compound, the pEC50 (Raji cells) was 5.96.

Compound `C[C@@H]1CN(c2ncc(F)c(N3CC(C(=O)N(C)C(C)(C)c4cnc5ccccn45)C3)n2)CCN1C` [Example 102, 1-{2-[(3R)-3,4-dimethylpiperazin-1-yl]-5-fluoropyrimidin-4-yl}-N-(2-{imidazo[1,2-a]pyridin-3-yl}propan-2-yl)-N-methylazetidine-3-carboxamide] has a half-life at 1 µM (in vitro) of 0.242 h, a pIC50 (Human NMT1 (HsNMT1)) of 7.14 and a pEC50 [6] of under 6.00. It also gave a pIC50 [7] of 7.62.

In the case of `C[C@H]1CN(C)CCN1c1ncc(Cl)c(N2CC(C(=O)NC(C)(C)c3cnc4ccccn34)C2)n1` [Example Compound 2], the “metabolic viability of the SKNAS-ER-N-MYC cell line” value (SKNAS-ER-N-Myc cell line) was “clear loss in metabolic viability when the cells have induction of MYCN” and the “metabolic viability of the Shep-ER-N-MYC cell line” value (Shep-ER-N-Myc cell line) was “clear loss in metabolic viability when the cells have induction of MYCN”.

Compound `C[C@@H]1CN(c2ncc(Cl)c(N3CC(C(=O)NC(C)(C)c4cnc5ccccn45)C3)n2)CCN1C` [Example Compound 3] has an average parasitemia values ([2]; 3 mg/kg po per day on day 3, 4, 5 and 6 post-infection, day 0 post infection) of 0.01%, an average parasitemia values ([2]; 3 mg/kg po per day on day 3, 4, 5 and 6 post-infection, day 3 post infection) of 1.49% and an average parasitemia values ([2]; 3 mg/kg po per day on day 3, 4, 5 and 6 post-infection, day 4 post infection) of 4.77%. It also gave an average parasitemia values ([2]; 3 mg/kg po per day on day 3, 4, 5 and 6 post-infection, day 5 post infection) of 6.73%, an average parasitemia values ([2]; 3 mg/kg po per day on day 3, 4, 5 and 6 post-infection, day 6 post infection) of 10.66% and an average parasitemia values ([2]; 3 mg/kg po per day on day 3, 4, 5 and 6 post-infection, day 7 post infection) of 11.25%. It also gave an average parasitemia values ([2]; 10 mg/kg po per day on day 3, 4, 5 and 6 post-infection, day 0 post infection) of 0.01%, an average parasitemia values ([2]; 10 mg/kg po per day on day 3, 4, 5 and 6 post-infection, day 3 post infection) of 1.37% and an average parasitemia values ([2]; 10 mg/kg po per day on day 3, 4, 5 and 6 post-infection, day 4 post infection) of 2.40%. It also gave an average parasitemia values ([2]; 10 mg/kg po per day on day 3, 4, 5 and 6 post-infection, day 5 post infection) of 4.21%, an average parasitemia values ([2]; 10 mg/kg po per day on day 3, 4, 5 and 6 post-infection, day 6 post infection) of 6.09% and an average parasitemia values ([2]; 10 mg/kg po per day on day 3, 4, 5 and 6 post-infection, day 7 post infection) of 7.35%. It also gave an average parasitemia values ([2]; 30 mg/kg po per day on day 3, 4, 5 and 6 post-infection, day 0 post infection) of 0.01%, an average parasitemia values ([2]; 30 mg/kg po per day on day 3, 4, 5 and 6 post-infection, day 3 post infection) of 0.60% and an average parasitemia values ([2]; 30 mg/kg po per day on day 3, 4, 5 and 6 post-infection, day 4 post infection) of 0.18%. The average parasitemia values ([2]; 30 mg/kg po per day on day 3, 4, 5 and 6 post-infection, day 5 post infection) was 0.02%, the average parasitemia values ([2]; 30 mg/kg po per day on day 3, 4, 5 and 6 post-infection, day 6 post infection) was 0.01% and the average parasitemia values ([2]; 30 mg/kg po per day on day 3, 4, 5 and 6 post-infection, day 7 post infection) was 0.00* %. For the same compound, the “metabolic viability of the P-493-6 cell line” value (P-493-6 cell line) was “clear MYC-dependent loss in metabolic viability”, the “metabolic viability of the SKNAS-ER-N-MYC cell line” value (SKNAS-ER-N-Myc cell line) was “clear loss in metabolic viability when the cells have induction of MYCN” and the “metabolic viability of the Shep-ER-N-MYC cell line” value (Shep-ER-N-Myc cell line) was “clear loss in metabolic viability when the cells have induction of MYCN”.
